What is called MIC is the least concentration at which growth counts as inhibited.

SMILES strings stand for the structures. Values after ≈ are worked out from the molar mass of the structure shown.

Format in all cases: functional
In one assay the test system is Pasteurella multocida. Kind of assay: In vitro antibacterial activity under anaerobic conditions against Pasteurella multocida strain 59A004.
The test system of the next assay is Escherichia coli. Kind of assay: In vitro antibacterial activity under anaerobic conditions against Escherichia coli strain 51A266.
The subject of another assay is Streptococcus pyogenes. Kind of assay: In vitro antibacterial activity under anaerobic conditions against […] pyogenes strain 2C203.
For assay [1], the system named is Brachyspira hyodysenteriae. Description: In vitro antibacterial activity under anaerobic conditions against Treponema hyodysenteriae strain 94A002.
A further assay concerns Salmonella enterica. Description: In vitro antibacterial activity under anaerobic conditions against Salmonella choleraesuis strain 58B242.

Consider `CCS(=O)(=O)Cc1nc2ccccc2[n+]([O-])c1C(=O)NC`, for which the minimal inhibitory concentration (MIC) in the assay with Pasteurella multocida was determined as 6.25 µg/mL (≈ 20.2 µM); against Escherichia coli, 12.5 µg/mL (≈ 40.4 µM); against Streptococcus pyogenes, 12.5 µg/mL (≈ 40.4 µM); in assay [1], 6.25 µg/mL (≈ 20.2 µM); in the assay with Salmonella enterica, 25 µg/mL (≈ 80.8 µM).

Turning to `CS(=O)(=O)Cc1nc2ccccc2[n+]([O-])c1C(N)=O`, the MIC worked out at 1.56 µg/mL (≈ 5.55 µM) against Pasteurella multocida; 1.56 µg/mL (≈ 5.55 µM) with Escherichia coli; 0.78 µg/mL (≈ 2.77 µM) against Streptococcus pyogenes; 6.25 µg/mL (≈ 22.2 µM) in assay [1]; 3.12 µg/mL (≈ 11.1 µM) with Salmonella enterica.

As to `CC(=O)c1c(C[S+](C)[O-])nc2ccccc2[n+]1[O-]` (configuration not stated), the MIC against Pasteurella multocida was found to be 3.12 µg/mL (≈ 11.8 µM); against Escherichia coli it was 25 µg/mL (≈ 94.6 µM); in the assay on Streptococcus pyogenes it was 6.25 µg/mL (≈ 23.6 µM); in assay [1], 6.25 µg/mL (≈ 23.6 µM); in the assay with Salmonella enterica, 25 µg/mL (≈ 94.6 µM).

`CC(=O)c1c(CS(=O)(=O)CCO)nc2ccccc2[n+]1[O-]`: the MIC with Pasteurella multocida came to 1.56 µg/mL (≈ 5.03 µM); against Escherichia coli, 25 µg/mL (≈ 80.6 µM); in the assay on Streptococcus pyogenes, 6.25 µg/mL (≈ 20.1 µM); in assay [1], 3.12 µg/mL (≈ 10.1 µM); against Salmonella enterica, 50 µg/mL (≈ 161 µM).

For `COC(=O)c1c(CS(C)(=O)=O)nc2ccccc2[n+]1[O-]`, the MIC in the assay on Pasteurella multocida worked out at 0.78 µg/mL (≈ 2.63 µM); against Escherichia coli, 3.12 µg/mL (≈ 10.5 µM); against Streptococcus pyogenes, 3.12 µg/mL (≈ 10.5 µM); in assay [1] it was 1.56 µg/mL (≈ 5.26 µM); in the assay with Salmonella enterica, 6.25 µg/mL (≈ 21.1 µM).

Turning to `COC(=O)c1c(CS(=O)(=O)CCO)nc2ccccc2[n+]1[O-]`, the MIC with Pasteurella multocida is 1.56 µg/mL (≈ 4.78 µM); in the assay on Escherichia coli it was 6.25 µg/mL (≈ 19.2 µM); against Streptococcus pyogenes, 0.78 µg/mL (≈ 2.39 µM); in assay [1] it was 1.56 µg/mL (≈ 4.78 µM); against Salmonella enterica, 25 µg/mL (≈ 76.6 µM).

On to `CS(=O)(=O)Cc1nc2ccccc2[n+]([O-])c1C#N`, for which the minimal inhibitory concentration (MIC) is 200 µg/mL (≈ 760 µM) against Pasteurella multocida, greater than 200 µg/mL with Escherichia coli, 25 µg/mL (≈ 95 µM) with Streptococcus pyogenes and greater than 200 µg/mL against Salmonella enterica.

For `CCS(=O)(=O)Cc1nc2ccccc2[n+]([O-])c1C(C)=O`, the MIC worked out at 6.25 µg/mL (≈ 21.2 µM) with Pasteurella multocida; 25 µg/mL (≈ 84.9 µM) against Escherichia coli; 1.56 µg/mL (≈ 5.3 µM) against Streptococcus pyogenes; 0.78 µg/mL (≈ 2.65 µM) in assay [1]; 50 µg/mL (≈ 170 µM) against Salmonella enterica.

Turning to `CC(=O)c1c(CS(C)(=O)=O)nc2ccccc2[n+]1[O-]`, the MIC was determined as 0.78 µg/mL (≈ 2.78 µM) against Pasteurella multocida; 12.5 µg/mL (≈ 44.6 µM) in the assay on Escherichia coli; 1.56 µg/mL (≈ 5.57 µM) with Streptococcus pyogenes; 0.19 µg/mL (≈ 0.678 µM) in assay [1]; 12.5 µg/mL (≈ 44.6 µM) in the assay with Salmonella enterica.

Turning to `CC(=O)c1c(C[S+]([O-])CCO)nc2ccccc2[n+]1[O-]` (configuration not stated), the MIC in the assay with Pasteurella multocida was found to be 3.12 µg/mL (≈ 10.6 µM); in the assay on Escherichia coli, 25 µg/mL (≈ 84.9 µM); with Streptococcus pyogenes, 25 µg/mL (≈ 84.9 µM); with Salmonella enterica it was 6.25 µg/mL (≈ 21.2 µM).

`CS(=O)(=O)Cc1nc2ccccc2[n+]([O-])c1S(C)(=O)=O`: the MIC with Pasteurella multocida was 3.12 µg/mL (≈ 9.86 µM); against Escherichia coli, 25 µg/mL (≈ 79 µM); in the assay on Streptococcus pyogenes, 6.25 µg/mL (≈ 19.8 µM); in assay [1] it was greater than 25 µg/mL; against Salmonella enterica it was 25 µg/mL (≈ 79 µM).

For `CNC(=O)c1c(CS(=O)(=O)CCO)nc2ccccc2[n+]1[O-]`, the MIC with Pasteurella multocida is 3.12 µg/mL (≈ 9.59 µM); against Escherichia coli, 6.25 µg/mL (≈ 19.2 µM); against Streptococcus pyogenes, 6.25 µg/mL (≈ 19.2 µM); in assay [1], 12.5 µg/mL (≈ 38.4 µM); in the assay on Salmonella enterica, 25 µg/mL (≈ 76.8 µM).

As to `CCCS(=O)(=O)Cc1nc2ccccc2[n+]([O-])c1C(C)=O`, the MIC amounted to 3.12 µg/mL (≈ 10.1 µM) against Pasteurella multocida, 100 µg/mL (≈ 324 µM) against Escherichia coli, 6.25 µg/mL (≈ 20.3 µM) in the assay with Streptococcus pyogenes and 200 µg/mL (≈ 649 µM) with Salmonella enterica.

As for `CNC(=O)c1c(CS(C)(=O)=O)nc2ccccc2[n+]1[O-]`, the MIC against Pasteurella multocida was found to be 0.78 µg/mL (≈ 2.64 µM); in the assay on Escherichia coli, 3.12 µg/mL (≈ 10.6 µM); in the assay with Streptococcus pyogenes, 6.25 µg/mL (≈ 21.2 µM); in assay [1], 3.12 µg/mL (≈ 10.6 µM); against Salmonella enterica it was 6.25 µg/mL (≈ 21.2 µM).

As for `COC(=O)N/N=C/c1c[n+]([O-])c2ccccc2[n+]1[O-]` [CARBADOX], the MIC in the assay on Pasteurella multocida stood at 0.78 µg/mL (≈ 2.97 µM); in the assay on Escherichia coli, 0.39 µg/mL (≈ 1.49 µM); with Streptococcus pyogenes, 0.19 µg/mL (≈ 0.725 µM); in assay [1], 0.19 µg/mL (≈ 0.725 µM); with Salmonella enterica, 0.19 µg/mL (≈ 0.725 µM).

For the origin of these results see ChEMBL document CHEMBL1122473, “Synthesis and antibacterial activity of some 3-[(alkylthio)methyl]quinoxaline 1-oxide derivatives” (1983).
